The record followed here is PubChem BioAssay (NCI).

Test systems include SK-MEL-2 melanoma; A498 renal; BT-549 breast; SF-295 CNS; SK-MEL-28 melanoma; HT29 colon; M14 melanoma; SF-268 CNS; MDA-MB-231 breast; RXF 393 renal.
Holding throughout (assay): NCI anticancer screen, dose series, 48 h

Values joined by “and” are separate entries in the source; they are usually repeats but may differ in a detail not shown here. Equal values may be shown once.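 All cell lines were grown in 96-well plates and treated with compound for 48 hours. GI50 is the concentration that inhibits growth by half. TGI is the concentration that stops growth completely.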 Some results are limits rather than exact numbers.

On to `O=c1cccc(C#CC#C[C@@H]2O[C@H]2CO)o1`, for which the GI50 was 2.2 µM in the test on SK-MEL-2 melanoma; 17.7 µM in the test on A498 renal; 2 µM in the test on BT-549 breast; 2.64 µM in the test with SF-295 CNS; 0.27 µM in the test with SK-MEL-28 melanoma; 0.429 µM with HT29 colon. Moreover, the GI50 with M14 melanoma is 0.414 µM; with SF-268 CNS it was 1.78 µM; in the test with MDA-MB-231 breast it was 0.233 µM; in the test on RXF 393 renal, 1.77 µM. Moreover, the TGI was found to be 33.3 µM with A498 renal; 3.73 µM with BT-549 breast; 9.03 µM with SF-295 CNS; 1.36 µM in the test with SK-MEL-28 melanoma; 2.53 µM in the test on HT29 colon; 3.91 µM in the test with SF-268 CNS. In addition, the TGI with MDA-MB-231 breast is 0.877 µM; in the test on RXF 393 renal, 3.98 µM.
As to `Nc1nc(Cl)nc2c1ncn2C1CC(O)C(CO)O1` (configuration not stated), the TGI in the test with SK-MEL-2 melanoma is over 100 µM; with A498 renal it was 48.2 µM; in the test with BT-549 breast it was over 100 µM; with SF-295 CNS, 99.9 µM; in the test on SK-MEL-28 melanoma, over 100 µM; with HT29 colon, over 100 µM. For the same compound, the TGI with M14 melanoma is 0.509 µM; in the test with SF-268 CNS it was over 95.7 µM; in the test with MDA-MB-231 breast, over 100 µM; in the test with RXF 393 renal it was over 100 µM. Moreover, the GI50 in the test on BT-549 breast was 0.345 µM; in the test with M14 melanoma, 0.186 µM; in the test on MDA-MB-231 breast, over 79.8 µM.
For `CCCCNCCCNCCCNC(=O)c1csc(-c2csc(CCNC(=O)C(NC(=O)C(C)C(O)C(C)NC(=O)C(NC(=O)c3nc(C(CC(N)=O)NCC(N)C(N)=O)nc(N)c3C)C(OC3OC(CO)C(O)C(O)C3OC3OC(CO)C(O)C(OC(N)=O)C3O)c3cnc[nH]3)C(C)O)n2)n1` (configuration not stated), the TGI was 17.3 µM with SK-MEL-2 melanoma; 50 µM and 28.1 µM in the test with A498 renal; over 50 µM in the test on BT-549 breast; 1.76 µM with SF-295 CNS; over 75.7 µM in the test with SK-MEL-28 melanoma; 50 µM and > 100 µM in the test on HT29 colon. Moreover, the TGI is 50 µM and 15.9 µM in the test on M14 melanoma; 50 µM and 15.2 µM in the test on SF-268 CNS; 50 µM in the test on MDA-MB-231 breast; 2.66 µM and 1.15 µM in the test on RXF 393 renal. The GI50 is 1.25 µM with A498 renal; over 50 µM with SK-MEL-28 melanoma; 1.73 µM in the test on HT29 colon; 34.3 µM in the test with M14 melanoma; 3.16 µM in the test on SF-268 CNS; 0.443 µM and 0.171 µM in the test with RXF 393 renal.
On to `Cc1cccc(NC2=C(Cl)C(=O)c3nc(C)ccc3C2=O)c1`, for which the GI50 is 1.93 µM with SK-MEL-2 melanoma; 0.235 µM in the test with A498 renal; 1.41 µM in the test with BT-549 breast; 1.49 µM in the test with SF-295 CNS; 1.71 µM in the test with SK-MEL-28 melanoma; 2.94 µM in the test with HT29 colon. Besides, the GI50 is 1.32 µM in the test with M14 melanoma, 2.1 µM in the test on SF-268 CNS, 0.904 µM in the test on MDA-MB-231 breast and 1.46 µM in the test on RXF 393 renal. Moreover, the TGI with SK-MEL-2 melanoma is 4.19 µM; in the test with A498 renal, 2.43 µM; in the test on BT-549 breast it was 2.77 µM; in the test with SF-295 CNS it was 2.96 µM; in the test with SK-MEL-28 melanoma, 3.14 µM; in the test on HT29 colon it was 11.9 µM. The TGI turned out to be 2.72 µM in the test on M14 melanoma, 6.4 µM with SF-268 CNS, 2.42 µM with MDA-MB-231 breast and 2.84 µM with RXF 393 renal.
Consider `COc1nc(=O)n(C2C=CC(=O)O2)cc1F` (configuration not stated), for which the GI50 in the test on SK-MEL-2 melanoma is 16.5 µM; in the test with A498 renal it was 16.2 µM; with BT-549 breast, 8.29 µM; in the test with SF-295 CNS it was 22.9 µM; in the test on SK-MEL-28 melanoma, 6.92 µM; in the test on HT29 colon, 4.63 µM. The GI50 is 5.82 µM in the test on M14 melanoma, 15.5 µM in the test on SF-268 CNS, 12.7 µM in the test with MDA-MB-231 breast and 1.94 µM in the test with RXF 393 renal. For the same compound, the TGI in the test on SK-MEL-2 melanoma came out at 54.1 µM; with A498 renal, 38.1 µM; with BT-549 breast, 24.1 µM; in the test on SF-295 CNS, 66.1 µM; with SK-MEL-28 melanoma, 20.1 µM; in the test with HT29 colon, 16.7 µM. Besides, the TGI in the test on M14 melanoma came to 20.6 µM; in the test on SF-268 CNS it was 37.3 µM; in the test on MDA-MB-231 breast it was 25.9 µM; in the test on RXF 393 renal, 5.03 µM.
As to `CN(C)CCN1CCC(Cc2ccccc2)CC1`, the GI50 in the test on SK-MEL-2 melanoma is over 80 µM; in the test on A498 renal, 47.2 µM; in the test with BT-549 breast it was over 80 µM; with SF-295 CNS it was over 80 µM; in the test on SK-MEL-28 melanoma it was over 80 µM; with HT29 colon, over 80 µM. The GI50 in the test with M14 melanoma, with SF-268 CNS, with MDA-MB-231 breast and in the test with RXF 393 renal was over 80 µM each time. Further, the TGI in the test with SK-MEL-2 melanoma, in the test on A498 renal, with BT-549 breast, with SF-295 CNS, with SK-MEL-28 melanoma and in the test with HT29 colon was over 80 µM each time. The TGI with M14 melanoma, with SF-268 CNS, in the test with MDA-MB-231 breast and in the test with RXF 393 renal was over 80 µM throughout.
On to `C=C(CN(C)Cc1ccccc1)c1ccc(NC(=O)c2ccc(C(=C)CN(C)Cc3ccccc3)cc2)cc1`, for which the GI50 with SK-MEL-2 melanoma was 60.9 µM; in the test on A498 renal it was 20.8 µM; with BT-549 breast it was over 100 µM; in the test with SF-295 CNS, 71.4 µM; in the test on SK-MEL-28 melanoma, over 100 µM; in the test on HT29 colon, over 100 µM. Moreover, the GI50 is over 100 µM in the test with M14 melanoma, 39.3 µM in the test on SF-268 CNS, 54.9 µM in the test on MDA-MB-231 breast and 32 µM with RXF 393 renal. The TGI is over 100 µM with SK-MEL-2 melanoma; 48.9 µM in the test on A498 renal; over 100 µM in the test with BT-549 breast; over 100 µM in the test with SF-295 CNS; over 100 µM with SK-MEL-28 melanoma; over 100 µM with HT29 colon. Besides, the TGI with M14 melanoma is over 100 µM; in the test on SF-268 CNS, over 100 µM; in the test on MDA-MB-231 breast, over 100 µM; with RXF 393 renal it was 99.3 µM.
As for `CCN(Cc1c(F)cccc1OC)c1ccc(CO)c(Cl)c1`, the GI50 was 2.39 µM in the test on SK-MEL-2 melanoma; 0.0325 µM with A498 renal; 17.6 µM in the test with BT-549 breast; 0.0707 µM in the test with SF-295 CNS; 14.7 µM in the test on SK-MEL-28 melanoma; 1.47 µM with HT29 colon. For the same compound, the GI50 was 19.7 µM in the test on M14 melanoma, 23.2 µM in the test with SF-268 CNS, 14.5 µM in the test with MDA-MB-231 breast and 10.9 µM in the test on RXF 393 renal. Moreover, the TGI in the test on SK-MEL-2 melanoma is 21.7 µM; in the test with A498 renal, 0.106 µM; in the test with BT-549 breast, 36.9 µM; with SF-295 CNS it was 1.88 µM; in the test on SK-MEL-28 melanoma it was 34.3 µM; with HT29 colon it was 18.9 µM. The TGI is 47.8 µM with M14 melanoma, over 63.5 µM in the test with SF-268 CNS, 40.9 µM in the test on MDA-MB-231 breast and 25.3 µM with RXF 393 renal.
